Measured values as given in ChEMBL document CHEMBL4507321 (2021).
Active and inactive are the calls of the source. The rule behind the calls is not given here.

Tests used:
[1] = molecular target: Alpha-1A adrenergic receptor (Homo sapiens) (UniProt P35348); conditions: Compound concentration 10.0 uM
[2] = molecular target: Histamine H1 receptor (Homo sapiens) (UniProt P35367); conditions: Compound concentration 10.0 uM
[3] = molecular target: 5-hydroxytryptamine receptor 2B (Homo sapiens) (UniProt P41595); conditions: Compound concentration 10.0 uM
[4] = molecular target: 5-hydroxytryptamine receptor 2A (Homo sapiens) (UniProt P28223); conditions: Compound concentration 10.0 uM
[5] = molecular target: 5-hydroxytryptamine receptor 1A (Homo sapiens) (UniProt P08908); conditions: Compound concentration 10.0 uM
[6] = molecular target: Alpha-2B adrenergic receptor (Homo sapiens) (UniProt P18089); conditions: Compound concentration 10.0 uM
[7] = molecular target: Sigma intracellular receptor 2 (Homo sapiens) (UniProt Q5BJF2); conditions: Compound concentration 10.0 uM
[8] = molecular target: D(1B) dopamine receptor (Homo sapiens) (UniProt P21918); conditions: Compound concentration 10.0 uM
[9] = molecular target: T1, GABA-A receptor; anion channel (Rattus norvegicus) (UniProt O09028+P15431+P18506+P18508+P19969+P20236+P23574+P23576+P28471+P28473+P30191+P62813+P63079+P63138+Q91ZM7+Q9ES14); conditions: Compound concentration 10.0 uM
[10] = molecular target: Muscarinic acetylcholine receptor M1 (Homo sapiens) (UniProt P11229); conditions: Compound concentration 10.0 uM
[11] = molecular target: Alpha-2C adrenergic receptor (Homo sapiens) (UniProt P18825); conditions: Compound concentration 10.0 uM
[12] = molecular target: 5-hydroxytryptamine receptor 5A (Homo sapiens) (UniProt P47898); conditions: Compound concentration 10.0 uM
[13] = molecular target: 5-hydroxytryptamine receptor 1E (Homo sapiens) (UniProt P28566); conditions: Compound concentration 10.0 uM
[14] = molecular target: Mu-type opioid receptor (Homo sapiens) (UniProt P35372); conditions: Compound concentration 10.0 uM
[15] = molecular target: Histamine H4 receptor (Homo sapiens) (UniProt Q9H3N8); conditions: Compound concentration 10.0 uM
[16] = molecular target: Beta-2 adrenergic receptor (Homo sapiens) (UniProt P07550); conditions: Compound concentration 10.0 uM
MEF = test: Cell growth of Fucci MEFs; assay type: functional, Mus musculus; conditions: Assay publication PMID: 30069049; Compound concentration 1 uM
[17] = molecular target: Histamine H2 receptor (Homo sapiens) (UniProt P25021); conditions: Compound concentration 10.0 uM
[18] = molecular target: D(1A) dopamine receptor (Homo sapiens) (UniProt P21728); conditions: Compound concentration 10.0 uM
[19] = molecular target: Muscarinic acetylcholine receptor M4 (Homo sapiens) (UniProt P08173); conditions: Compound concentration 10.0 uM
[20] = molecular target: Kappa-type opioid receptor (Homo sapiens) (UniProt P41145); conditions: Compound concentration 10.0 uM
[21] = molecular target: D(4) dopamine receptor (Homo sapiens) (UniProt P21917); conditions: Compound concentration 10.0 uM
[22] = molecular target: 5-hydroxytryptamine receptor 1B (Homo sapiens) (UniProt P28222); conditions: Compound concentration 10.0 uM
[23] = molecular target: Alpha-1B adrenergic receptor (Homo sapiens) (UniProt P35368); conditions: Compound concentration 10.0 uM
[24] = molecular target: T1, GABA-A receptor; anion channel (Rattus norvegicus); conditions: Compound concentration 10.0 uM; remark: listed apart in the source
[25] = molecular target: Alpha-1D adrenergic receptor (Homo sapiens) (UniProt P25100); conditions: Compound concentration 10.0 uM
[26] = molecular target: 5-hydroxytryptamine receptor 1D (Homo sapiens) (UniProt P28221); conditions: Compound concentration 10.0 uM
[27] = molecular target: 5-hydroxytryptamine receptor 3A (Homo sapiens) (UniProt P46098); conditions: Compound concentration 10.0 uM
[28] = molecular target: Muscarinic acetylcholine receptor M5 (Homo sapiens) (UniProt P08912); conditions: Compound concentration 10.0 uM
[29] = molecular target: Beta-1 adrenergic receptor (Homo sapiens) (UniProt P08588); conditions: Compound concentration 10.0 uM
[30] = molecular target: Muscarinic acetylcholine receptor M2 (Homo sapiens) (UniProt P08172); conditions: Compound concentration 10.0 uM
[31] = molecular target: Delta-type opioid receptor (Homo sapiens) (UniProt P41143); conditions: Compound concentration 10.0 uM
[32] = molecular target: 5-hydroxytryptamine receptor 2C (Homo sapiens) (UniProt P28335); conditions: Compound concentration 10.0 uM
[33] = molecular target: 5-hydroxytryptamine receptor 7 (Homo sapiens) (UniProt P34969); conditions: Compound concentration 10.0 uM
EMRK1184 = test: Proliferation assay with EMRK1184 lymphoma cells; assay type: functional, cell-based; conditions: Mus musculus
[34] = molecular target: D(3) dopamine receptor (Homo sapiens) (UniProt P35462); conditions: Compound concentration 10.0 uM
Rattus norvegicus = organism: Rattus norvegicus; conditions: Compound concentration 10.0 uM
[35] = molecular target: Beta-3 adrenergic receptor (Homo sapiens) (UniProt P13945); conditions: Compound concentration 10.0 uM
[36] = molecular target: Sigma non-opioid intracellular receptor 1 (Homo sapiens) (UniProt Q99720); conditions: Compound concentration 10.0 uM
[37] = molecular target: D(2) dopamine receptor (Homo sapiens) (UniProt P14416); conditions: Compound concentration 10.0 uM
[38] = molecular target: Sodium-dependent noradrenaline transporter (Homo sapiens) (UniProt P23975); conditions: Compound concentration 10.0 uM
[39] = molecular target: Alpha-2A adrenergic receptor (Homo sapiens, UniProt P08913); test: GPCRScan assay: inhibition of Alpha2A; parameters: radioligand conc. used [nm] 1.0 – 3.0, parental cells stable MDCK
[40] = molecular target: Histamine H3 receptor (Homo sapiens) (UniProt Q9Y5N1); conditions: Compound concentration 10.0 uM
[41] = molecular target: 5-hydroxytryptamine receptor 6 (Homo sapiens) (UniProt P50406); conditions: Compound concentration 10.0 uM
[42] = molecular target: Alpha-2A adrenergic receptor (Homo sapiens) (UniProt P08913); conditions: Compound concentration 10.0 uM
[43] = molecular target: Muscarinic acetylcholine receptor M3 (Homo sapiens) (UniProt P20309); conditions: Compound concentration 10.0 uM
[44] = molecular target: Methionine aminopeptidase 2 (Homo sapiens, UniProt P50579); test: Biochemical activity-MetAP2 using Co
[45] = molecular target: T2, Sodium-dependent dopamine transporter (Homo sapiens, UniProt Q01959); conditions: Compound concentration 10.0 uM
[46] = molecular target: T2, Sodium-dependent dopamine transporter; test: GPCRScan assay: inhibition of DAT; parameters: radioligand conc. used [nm] 3.6 – 16.0, parental cells stable HEK
[47] = molecular target: Sodium-dependent serotonin transporter (Homo sapiens) (UniProt P31645); conditions: Compound concentration 10.0 uM

T2 sequence (Q01959 whole entry): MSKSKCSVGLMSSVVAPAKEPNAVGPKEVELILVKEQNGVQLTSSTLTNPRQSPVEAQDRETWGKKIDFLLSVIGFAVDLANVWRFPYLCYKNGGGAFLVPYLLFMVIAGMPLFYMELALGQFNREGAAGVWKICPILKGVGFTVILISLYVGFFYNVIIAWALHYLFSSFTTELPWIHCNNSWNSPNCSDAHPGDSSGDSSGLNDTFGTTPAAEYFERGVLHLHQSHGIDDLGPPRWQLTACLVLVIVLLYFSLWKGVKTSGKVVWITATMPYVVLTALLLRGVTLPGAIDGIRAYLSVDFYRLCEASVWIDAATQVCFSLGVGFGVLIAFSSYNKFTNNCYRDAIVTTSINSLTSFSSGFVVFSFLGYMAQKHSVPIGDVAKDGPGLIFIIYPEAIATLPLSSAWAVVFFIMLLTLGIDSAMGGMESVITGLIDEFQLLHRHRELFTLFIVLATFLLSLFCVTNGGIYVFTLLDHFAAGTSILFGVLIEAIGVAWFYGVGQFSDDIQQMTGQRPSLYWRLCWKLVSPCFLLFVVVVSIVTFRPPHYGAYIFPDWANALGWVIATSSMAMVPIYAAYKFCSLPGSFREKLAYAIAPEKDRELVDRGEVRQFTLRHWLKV
Sequence of D(1A) dopamine receptor (Homo sapiens) (P21728 whole entry): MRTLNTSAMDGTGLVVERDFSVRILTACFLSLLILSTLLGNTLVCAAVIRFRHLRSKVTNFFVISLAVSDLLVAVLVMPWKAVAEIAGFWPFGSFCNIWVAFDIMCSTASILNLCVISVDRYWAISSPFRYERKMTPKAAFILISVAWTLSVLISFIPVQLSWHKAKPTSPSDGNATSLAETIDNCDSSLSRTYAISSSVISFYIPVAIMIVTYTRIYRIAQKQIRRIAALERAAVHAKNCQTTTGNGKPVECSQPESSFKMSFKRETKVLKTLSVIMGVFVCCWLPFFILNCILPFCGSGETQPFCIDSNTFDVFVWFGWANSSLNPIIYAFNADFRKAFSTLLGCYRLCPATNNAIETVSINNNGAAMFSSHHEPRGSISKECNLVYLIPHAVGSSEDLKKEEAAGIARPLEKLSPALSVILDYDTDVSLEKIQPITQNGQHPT
Sequence of D(3) dopamine receptor (Homo sapiens) (P35462 whole entry): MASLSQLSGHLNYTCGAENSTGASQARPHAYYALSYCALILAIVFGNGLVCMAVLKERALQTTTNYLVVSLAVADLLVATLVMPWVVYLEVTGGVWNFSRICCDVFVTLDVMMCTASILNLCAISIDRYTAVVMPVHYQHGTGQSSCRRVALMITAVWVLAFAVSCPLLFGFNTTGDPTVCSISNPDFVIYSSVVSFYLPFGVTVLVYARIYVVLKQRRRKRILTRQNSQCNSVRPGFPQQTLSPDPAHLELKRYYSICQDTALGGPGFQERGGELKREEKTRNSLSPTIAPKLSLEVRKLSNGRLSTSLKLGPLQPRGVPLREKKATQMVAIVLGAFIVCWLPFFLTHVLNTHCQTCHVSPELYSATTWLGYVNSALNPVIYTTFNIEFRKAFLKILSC
Sequence of Muscarinic acetylcholine receptor M1 (Homo sapiens) (P11229 whole entry): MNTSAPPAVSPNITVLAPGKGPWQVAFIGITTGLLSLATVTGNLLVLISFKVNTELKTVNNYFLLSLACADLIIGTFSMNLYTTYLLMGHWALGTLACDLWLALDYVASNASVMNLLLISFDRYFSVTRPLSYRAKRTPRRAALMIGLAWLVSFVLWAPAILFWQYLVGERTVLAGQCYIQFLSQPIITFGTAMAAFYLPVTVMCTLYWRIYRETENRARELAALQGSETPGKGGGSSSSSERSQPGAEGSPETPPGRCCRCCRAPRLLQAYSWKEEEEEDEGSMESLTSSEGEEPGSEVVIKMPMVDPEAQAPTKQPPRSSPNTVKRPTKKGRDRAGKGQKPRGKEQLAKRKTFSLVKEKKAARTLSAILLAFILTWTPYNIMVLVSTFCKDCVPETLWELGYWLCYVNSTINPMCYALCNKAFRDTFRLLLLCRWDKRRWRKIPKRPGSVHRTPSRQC
Sequence of D(4) dopamine receptor (Homo sapiens) (P21917 whole entry): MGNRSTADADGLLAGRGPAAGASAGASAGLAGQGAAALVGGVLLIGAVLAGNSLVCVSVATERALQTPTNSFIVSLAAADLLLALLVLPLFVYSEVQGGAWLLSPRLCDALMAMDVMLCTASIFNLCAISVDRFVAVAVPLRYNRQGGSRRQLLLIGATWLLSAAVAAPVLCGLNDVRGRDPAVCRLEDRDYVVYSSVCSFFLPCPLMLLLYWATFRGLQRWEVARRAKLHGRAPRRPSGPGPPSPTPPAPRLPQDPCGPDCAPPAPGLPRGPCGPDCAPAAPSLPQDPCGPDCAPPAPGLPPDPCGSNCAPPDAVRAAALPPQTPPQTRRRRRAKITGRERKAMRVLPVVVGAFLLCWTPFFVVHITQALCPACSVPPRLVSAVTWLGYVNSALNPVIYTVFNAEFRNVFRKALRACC
Sequence of 5-hydroxytryptamine receptor 7 (Homo sapiens) (P34969 whole entry): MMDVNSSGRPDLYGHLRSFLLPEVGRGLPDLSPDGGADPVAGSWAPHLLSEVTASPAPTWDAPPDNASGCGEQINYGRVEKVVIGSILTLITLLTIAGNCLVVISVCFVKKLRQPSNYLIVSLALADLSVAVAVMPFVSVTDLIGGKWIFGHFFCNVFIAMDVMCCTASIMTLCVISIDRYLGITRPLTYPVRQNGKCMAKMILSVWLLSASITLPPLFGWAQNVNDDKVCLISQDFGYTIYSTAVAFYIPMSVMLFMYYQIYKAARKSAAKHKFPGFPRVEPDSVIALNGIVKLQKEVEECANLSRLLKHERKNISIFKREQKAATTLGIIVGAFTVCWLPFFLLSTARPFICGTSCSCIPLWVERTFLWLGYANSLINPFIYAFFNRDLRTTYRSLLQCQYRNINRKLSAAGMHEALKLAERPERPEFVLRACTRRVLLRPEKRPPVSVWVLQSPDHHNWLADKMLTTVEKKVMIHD
Sequence of D(1B) dopamine receptor (Homo sapiens) (P21918 whole entry): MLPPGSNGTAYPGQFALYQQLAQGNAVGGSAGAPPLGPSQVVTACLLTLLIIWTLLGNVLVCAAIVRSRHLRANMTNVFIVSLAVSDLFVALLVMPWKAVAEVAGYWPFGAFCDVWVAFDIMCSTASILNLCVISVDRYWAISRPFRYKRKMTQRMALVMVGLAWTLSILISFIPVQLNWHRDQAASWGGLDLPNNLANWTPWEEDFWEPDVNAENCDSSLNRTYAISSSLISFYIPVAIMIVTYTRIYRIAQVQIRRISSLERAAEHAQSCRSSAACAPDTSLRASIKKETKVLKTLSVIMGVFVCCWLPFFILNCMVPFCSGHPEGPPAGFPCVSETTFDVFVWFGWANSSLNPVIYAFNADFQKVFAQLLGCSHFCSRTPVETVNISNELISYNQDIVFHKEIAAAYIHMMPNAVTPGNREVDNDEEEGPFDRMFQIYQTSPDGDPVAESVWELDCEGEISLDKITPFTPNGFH
Sequence of 5-hydroxytryptamine receptor 2C (Homo sapiens) (P28335 whole entry): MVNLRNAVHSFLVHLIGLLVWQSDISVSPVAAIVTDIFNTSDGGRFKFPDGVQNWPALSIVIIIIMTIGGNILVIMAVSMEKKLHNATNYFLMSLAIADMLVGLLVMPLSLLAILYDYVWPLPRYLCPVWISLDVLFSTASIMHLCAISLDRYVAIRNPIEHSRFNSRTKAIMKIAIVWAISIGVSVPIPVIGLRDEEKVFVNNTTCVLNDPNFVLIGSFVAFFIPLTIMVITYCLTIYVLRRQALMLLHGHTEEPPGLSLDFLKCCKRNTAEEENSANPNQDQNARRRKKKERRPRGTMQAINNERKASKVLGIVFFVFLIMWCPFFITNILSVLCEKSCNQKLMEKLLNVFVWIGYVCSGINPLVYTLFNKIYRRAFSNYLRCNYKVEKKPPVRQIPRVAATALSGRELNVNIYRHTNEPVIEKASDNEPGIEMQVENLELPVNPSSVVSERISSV
Sequence of 5-hydroxytryptamine receptor 1B (Homo sapiens) (P28222 whole entry): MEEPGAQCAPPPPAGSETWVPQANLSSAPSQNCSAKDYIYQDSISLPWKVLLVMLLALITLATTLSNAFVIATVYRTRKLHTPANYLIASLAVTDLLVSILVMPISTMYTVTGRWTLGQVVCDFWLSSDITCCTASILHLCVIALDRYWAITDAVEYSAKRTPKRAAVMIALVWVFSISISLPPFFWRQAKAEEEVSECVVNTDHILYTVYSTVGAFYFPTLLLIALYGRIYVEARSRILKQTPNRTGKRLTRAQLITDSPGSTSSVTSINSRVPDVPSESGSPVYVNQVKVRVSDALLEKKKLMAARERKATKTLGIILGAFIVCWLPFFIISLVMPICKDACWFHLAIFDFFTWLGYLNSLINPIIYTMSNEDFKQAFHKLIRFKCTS
Sequence of Sigma intracellular receptor 2 (Homo sapiens) (Q5BJF2 whole entry): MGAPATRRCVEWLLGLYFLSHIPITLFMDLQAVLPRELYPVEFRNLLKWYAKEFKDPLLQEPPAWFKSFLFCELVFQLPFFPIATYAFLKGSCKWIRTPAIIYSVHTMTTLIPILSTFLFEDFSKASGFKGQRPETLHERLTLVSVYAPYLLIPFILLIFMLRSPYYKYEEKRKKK
Sequence of Alpha-2B adrenergic receptor (Homo sapiens) (P18089 whole entry): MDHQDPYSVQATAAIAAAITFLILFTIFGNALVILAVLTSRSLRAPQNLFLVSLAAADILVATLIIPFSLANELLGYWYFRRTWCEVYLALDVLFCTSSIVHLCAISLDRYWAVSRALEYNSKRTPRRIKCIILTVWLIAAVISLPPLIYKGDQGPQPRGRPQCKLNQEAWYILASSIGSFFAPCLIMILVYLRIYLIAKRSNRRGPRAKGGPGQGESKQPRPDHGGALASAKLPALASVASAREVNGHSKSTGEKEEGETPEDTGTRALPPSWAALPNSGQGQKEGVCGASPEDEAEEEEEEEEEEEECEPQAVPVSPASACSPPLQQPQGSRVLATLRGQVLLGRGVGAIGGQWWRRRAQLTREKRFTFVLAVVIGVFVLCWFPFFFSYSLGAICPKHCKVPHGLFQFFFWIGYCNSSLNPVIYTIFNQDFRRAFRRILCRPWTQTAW

O=C(NNS(=O)(=O)c1ccccc1F)c1cc(F)cc(-c2ccccn2)c1 [WM-1119] was tested, and the inhibition [1] was 9.59%, the inhibition [2] was -8.33% and the inhibition [3] was 2.94%. The inhibition [4] was -7.37%, the inhibition [5] was 16% and the inhibition [6] was -3.78%. The inhibition [7] was 19.9%, the inhibition [8] was 4.57% and the inhibition [9] was 75.7%. The inhibition [10] was 0.14%, the inhibition [11] was 10.2% and the inhibition [12] was -9.77%. It also gave an inhibition [13] of 13.8%, an inhibition [14] of 3.45% and an inhibition [15] of -2.44%. The inhibition [16] was 13.2%, the Cell cycle effect (MEF) was 0 and the inhibition [17] was 5.32%. It also gave an inhibition [18] of -3.67%, an inhibition [19] of 20.4% and an inhibition [20] of 5.23%. The inhibition [21] was 23.8%, the inhibition [22] was 13.6% and the inhibition [23] was 7.18%. For the same compound, the inhibition [24] was 11.7%, the inhibition [25] was 3.2% and the inhibition [26] was -0.66%. It also gave an inhibition [27] of 32.9%, an inhibition [28] of -8.87% and an inhibition [29] of -0.13%. The inhibition [30] was 15.9%, the inhibition [31] was 20.6% and the inhibition [32] was 6.46%. For the same compound, the inhibition [33] was -3.75%, the IC50 (EMRK1184) was 0.25 µM (active) and the inhibition [34] was 4.97%. For the same compound, the inhibition (Rattus norvegicus) was 47%, the inhibition [35] was 16.3% and the inhibition [36] was 35.7%. The inhibition [37] was 79.6%.

Work on O=C(NNS(=O)(=O)c1ccccc1)c1cc(-c2ccnnc2)ccc1F [WM-2474] yielded an inhibition [1] of 18.6%, an inhibition [2] of -2.04% and an inhibition [3] of 40.1%. The inhibition [4] was 11.8%, the inhibition [5] was 23.1% and the inhibition [38] was -2.4%. The inhibition [6] was 3.07%, the inhibition [7] was 40.1% and the Ki [39] was greater than 10 µM. It also gave a pKi [39] of less than 5, an inhibition [8] of 5.79% and an inhibition [9] of 34.6%. The inhibition [10] was 43.3%, the inhibition [11] was -5.42% and the inhibition [12] was -0.06%. For the same compound, the inhibition [13] was 13.1%, the inhibition [40] was 15.5% and the inhibition [14] was 26.1%. It also gave an inhibition [41] of 2.65%, an inhibition [42] of 68.5% and an inhibition [16] of 10.4%. The Cell cycle effect (MEF) was 0, the inhibition [17] was -5.93% and the inhibition [43] was 13%. For the same compound, the inhibition [18] was 8.58%, the inhibition [20] was -5.1% and the inhibition [21] was 9.83%. It also gave an inhibition [22] of 11%, an inhibition [23] of -3.44% and an inhibition [24] of 4.55%. For the same compound, the inhibition [25] was 17.4%, the inhibition [27] was 4.55% and the inhibition [29] was 11.2%. The inhibition [30] was -5.57%, the IC50 [44] was > 50 µM (not active) and the inhibition [31] was 7.99%. The inhibition [32] was 7.81%, the inhibition [45] was 80.2% and the inhibition [33] was -1.87%. The inhibition [34] was -8.61%, the inhibition (Rattus norvegicus) was -3.6% and the Ki [46] was greater than 10 µM. For the same compound, the pKi [46] was less than 5, the inhibition [47] was 6.15% and the inhibition [36] was 19.1%. It also gave an inhibition [37] of 14.7%.
